Data: patent US12697402B2, “Detection of colonic neoplasia in vivo using near-infrared peptide targeted against overexpressed cMet” (THE REGENTS OF THE UNIVERSITY OF MICHIGAN, priority 2019, dated 2026)
Entries after “also recorded” stand apart in the source; their conditions may differ. Peptide text beside a SMILES is read from it. * marks the point of attachment. X1 = CN1/C(=C/C=C/C=C/C2=[N+](CCCCCC(=O)*)c3ccc4ccccc4c3C2(C)C)C(C)(C)c2c1ccc1ccccc21

Assays:
cMet (HT29 cells) = cMet (HT29 cells) (Homo sapiens, UniProt P08581); assay: biochemical
Protocol: Cells then were washed 3 times with 1×PBS containing 0.5% BSA to remove unbound peptides before analysis with flow cytometry (FACS Canto; BD Biosciences, San Jose, CA). Sample means were used to calculate the equilibrium dissociation constant KD using nonlinear regression analysis with Origin 6.1 data analysis software (OriginLab, Northampton, MA). KD=1/KA was calculated by performing a least-squares fit of the data to the nonlinear equation I[X]=(I0+Imaxka[X])/(I0+ka[X]). I0 and Imax are the initial and maximum fluorescence intensities, corresponding to no peptide and peptide saturation, respectively, and [X] represents the concentration of the bound peptide.^34

CCD841 cells = assay: Alamar blue assay, CCD841; type: cell-based, human; details: normal colon cells; 48 hours; HGF 25 ng/mL; peptide 5 or 100 μM
Protocol: (§1) An alamar blue assay was performed using HT29 and CCD841 cells. After culturing in serum free media overnight, about 3×10^3 cells were seeded per well in serum free media in 96 well plates at a final volume of 100 μL per well. […] Alamar blue reagent (10 μL) was added in amounts equal to 10% of the volume in the well, and incubated at 37° C. for 4 hours. Fluorescence with excitation at λex=530-560 nm, and emission at λex=590 nm, was measured.

HT29 cells = assay: Alamar blue assay, HT29; type: cell-based, human; details: 48 hours; HGF 25 ng/mL; peptide 5 or 100 μM
Protocol: as §1

[1] = system: phosphorylation of cMet, AKT and ERK1/2; assay: Effect of peptide on cell signaling (Western blot); type: cell-based, human; details: HT29 cells; 10, 30, 120 min; HGF 25 ng/mL; peptide 5 or 100 μM
Protocol: HT29 cells were treated with serum-free medium overnight for starvation before incubation with hHGF (hHGF, 294-HG-005, R&D) or peptides. Recombinant Human HGF Protein was added to HT29 cells at concentrations of 25 ng/ml for 10, 30, or 120 min in separate wells. QQT*-Cy5.5 and TLQ*-Cy5.5 were added at concentrations of 5 or 100 μM for 10, 30, and 120 min. Peptides were added at concentrations of 5 and 100 μM for 10, 30, or 120 min. Cells were then washed with 1×PBS and lysed with Pierce RIPA buffer containing Halt Phosphatase Inhibitor Cocktail (Thermo Fisher) and Halt Protease Inhibitor Cocktail (Thermo Fisher). Protein contents were quantified by Bicinchoninic Acid Assay (BCA). Anti-cMet antibody (Cell Signaling, #8198), phospho-cMet (Tyr1234/1235) antibody (Cell Signaling, #3077), anti-AKT antibody (Cell Signaling, #4691), anti-phospho-AKT antibody (Cell Signaling, #9271), anti-ERK1/2 antibody (Abcam, #ab17942), anti-phospho-ERK1/2 antibody (Abcam, #ab50011), and anti-tubulin antibody (Invitrogen, #32-2600) were used per manufacturer's instructions.

Sequence of cMet (HT29 cells) (P08581 25-1390): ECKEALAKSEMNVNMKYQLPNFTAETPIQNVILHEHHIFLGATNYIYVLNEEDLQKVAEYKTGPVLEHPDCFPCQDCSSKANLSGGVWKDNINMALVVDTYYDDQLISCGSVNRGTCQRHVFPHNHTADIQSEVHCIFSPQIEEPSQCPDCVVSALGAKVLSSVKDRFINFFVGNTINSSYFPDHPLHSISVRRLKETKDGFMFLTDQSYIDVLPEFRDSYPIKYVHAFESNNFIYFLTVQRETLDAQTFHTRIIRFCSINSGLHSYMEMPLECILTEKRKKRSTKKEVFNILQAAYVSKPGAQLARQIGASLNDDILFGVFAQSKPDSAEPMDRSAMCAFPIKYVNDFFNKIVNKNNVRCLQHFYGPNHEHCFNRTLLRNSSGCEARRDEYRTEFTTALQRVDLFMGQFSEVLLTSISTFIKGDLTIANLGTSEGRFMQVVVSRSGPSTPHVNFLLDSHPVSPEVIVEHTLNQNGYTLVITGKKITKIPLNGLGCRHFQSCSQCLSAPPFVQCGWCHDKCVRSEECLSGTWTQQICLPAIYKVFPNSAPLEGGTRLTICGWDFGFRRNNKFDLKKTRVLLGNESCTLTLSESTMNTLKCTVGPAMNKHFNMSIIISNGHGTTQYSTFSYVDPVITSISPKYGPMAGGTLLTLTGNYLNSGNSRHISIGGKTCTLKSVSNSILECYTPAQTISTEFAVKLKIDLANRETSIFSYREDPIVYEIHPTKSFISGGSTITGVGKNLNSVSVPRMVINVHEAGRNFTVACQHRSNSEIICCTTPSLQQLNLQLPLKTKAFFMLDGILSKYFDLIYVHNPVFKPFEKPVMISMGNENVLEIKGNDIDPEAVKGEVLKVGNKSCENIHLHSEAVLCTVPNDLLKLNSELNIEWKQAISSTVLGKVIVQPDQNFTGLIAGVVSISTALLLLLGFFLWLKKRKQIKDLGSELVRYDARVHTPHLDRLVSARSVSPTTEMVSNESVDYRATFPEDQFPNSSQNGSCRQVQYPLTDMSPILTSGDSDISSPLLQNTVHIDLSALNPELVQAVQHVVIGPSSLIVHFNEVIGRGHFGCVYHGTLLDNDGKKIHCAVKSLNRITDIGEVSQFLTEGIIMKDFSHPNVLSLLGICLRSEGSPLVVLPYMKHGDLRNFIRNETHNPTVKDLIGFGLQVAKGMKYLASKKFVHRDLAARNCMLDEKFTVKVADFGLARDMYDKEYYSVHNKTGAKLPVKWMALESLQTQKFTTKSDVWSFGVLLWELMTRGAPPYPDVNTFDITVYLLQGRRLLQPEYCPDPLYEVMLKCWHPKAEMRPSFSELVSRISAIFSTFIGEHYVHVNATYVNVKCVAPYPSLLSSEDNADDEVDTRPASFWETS

Molecule | Kd (cMet (HT29 cells)) | growth of CCD841 cells (CCD841 cells) | growth of HT29 cells (HT29 cells) | phosphorylation of cMet and downstream AKT and ERK1/2 [1]
CC(C)C[C@H](NC(=O)[C@H](CO)NC(=O)[C@H](Cc1c[nH]c2ccccc12)NC(=O)[C@H](CC(N)=O)NC(=O)[C@@H](NC(=O)[C@H](CCC(N)=O)NC(=O)[C@@H](N)CCC(N)=O)[C@@H](C)O)C(=O)NCC(=O)NCC(=O)NCC(=O)N[C@@H](CO)C(=O)N[C@@H](CCCCNC(=O)CCCCC[N+]1=C(/C=C/C=C/C=C2/N(C)c3ccc4ccccc4c3C2(C)C)C(C)(C)c2c1ccc1ccccc21)C(N)=O [QQT*-Cy5.5] (H-QQTNWSLGGGSK(X1)-NH2) | 57 nM | no effect on growth; also recorded: No change |  | 
HGF: recombinant human hepatocyte growth factor, known ligand for cMet, positive control |  |  | increased growth | strong phosphorylation activity; also recorded: induced phosphorylation
